According to ChEMBL document CHEMBL1759929, “Synthesis and pharmacological evaluation of novel benzoylazole-based PPAR α/γ activators” (Bioorg Med Chem Lett, 2011):

Columns and labels:
[1] = target: T1, Peroxisome proliferator-activated receptor gamma (Homo sapiens, UniProt P37231); test: Partial agonist activity at human PPARgamma expressed in CHO cells co-transfected with Gal4-responsive luciferase reporter plasmid after 24 hrs by transactivation assay; format: functional, cell-based
T1 sequence (P37231 whole entry): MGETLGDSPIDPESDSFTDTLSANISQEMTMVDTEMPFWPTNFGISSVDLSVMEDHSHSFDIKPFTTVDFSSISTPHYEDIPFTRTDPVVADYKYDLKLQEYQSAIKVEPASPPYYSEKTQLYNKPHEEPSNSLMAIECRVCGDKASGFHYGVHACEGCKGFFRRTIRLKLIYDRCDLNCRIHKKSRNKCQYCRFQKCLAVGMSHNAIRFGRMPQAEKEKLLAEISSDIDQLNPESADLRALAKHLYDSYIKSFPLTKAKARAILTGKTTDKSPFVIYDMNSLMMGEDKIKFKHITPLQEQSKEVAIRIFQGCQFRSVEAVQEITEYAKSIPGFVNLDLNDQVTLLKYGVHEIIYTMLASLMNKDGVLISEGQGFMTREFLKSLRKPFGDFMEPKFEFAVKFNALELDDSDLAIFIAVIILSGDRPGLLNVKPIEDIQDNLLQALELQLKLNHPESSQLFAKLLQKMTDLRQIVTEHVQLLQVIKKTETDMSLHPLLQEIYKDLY

[2] = target: T2, Peroxisome proliferator-activated receptor alpha (Homo sapiens, UniProt Q07869); test: Partial agonist activity at human PPARalpha expressed in CHO cells co-transfected with Gal4-responsive luciferase reporter plasmid after 24 hrs by transactivation assay; format: functional, cell-based
T2 sequence (Q07869 whole entry): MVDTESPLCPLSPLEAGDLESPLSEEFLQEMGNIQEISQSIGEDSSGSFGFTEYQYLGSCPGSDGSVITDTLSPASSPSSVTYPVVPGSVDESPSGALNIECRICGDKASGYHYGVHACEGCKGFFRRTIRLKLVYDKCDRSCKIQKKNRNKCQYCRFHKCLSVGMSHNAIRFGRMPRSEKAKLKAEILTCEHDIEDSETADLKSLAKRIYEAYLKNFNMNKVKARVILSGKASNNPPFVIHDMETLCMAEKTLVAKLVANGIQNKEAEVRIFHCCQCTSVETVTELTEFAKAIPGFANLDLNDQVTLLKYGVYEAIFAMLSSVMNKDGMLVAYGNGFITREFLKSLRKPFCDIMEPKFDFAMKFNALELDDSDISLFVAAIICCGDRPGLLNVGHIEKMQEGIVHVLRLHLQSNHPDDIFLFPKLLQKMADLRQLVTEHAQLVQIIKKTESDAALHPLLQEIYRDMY

Mus musculus [3] = test: Antidiabetic effect in db/db mouse assessed as increase in HDL cholesterol level at 30 mg/kg/day, po administered daily for 14 days; format: functional; details: 336 h
[4] = Volume of distribution in rat at 1 mg/kg, iv; format: ADME, organism-based; parameters: dose 1 mg/kg, route intravenous; details: in vivo
Mus musculus [5] = test: Toxicity in db/db mouse assessed as body weight gain at 30 mg/kg/day, po administered daily for 14 days relative to control; format: organism-based; parameters: route oral; details: in vivo, 336 h
Mus musculus [6] = test: Toxicity in db/db mouse assessed as effect on food intake at 30 mg/kg/day, po administered daily for 14 days relative to control; format: organism-based; parameters: route oral; details: in vivo, 336 h
Mus musculus [7] = test: Antidiabetic effect in db/db mouse assessed as reduction in plasma glucose level at 30 mg/kg/day, po administered daily for 14 days; format: functional; details: 336 h
Mus musculus [8] = test: Antidiabetic effect in db/db mouse assessed as reduction in plasma triglyceride level at 30 mg/kg/day, po administered daily for 14 days; format: functional; details: 336 h
[9] = Half life in rat at 1 mg/kg, iv; format: ADME, organism-based; parameters: dose 1 mg/kg, route intravenous; details: in vivo
[10] = Clearance in rat at 1 mg/kg, iv; format: ADME, organism-based; parameters: dose 1 mg/kg, route intravenous; details: in vivo
[11] = Oral bioavailability in rat at 10 mg/kg; format: ADME, organism-based; details: in vivo
[12] = Cmax in rat at 10 mg/kg, po; format: ADME, organism-based; parameters: dose 10 mg/kg, route oral; details: in vivo
[13] = target: T3, Peroxisome proliferator-activated receptor alpha (Homo sapiens) (UniProt Q07869); test: Partial agonist activity at human PPARalpha expressed in CHO cells co-transfected with Gal4-responsive luciferase reporter plasmid after 24 hrs by transactivation assay relative to fenofibric acid; format: functional, cell-based; parameters: concentration or dose not given beside the values
T3 sequence (whole entry): T2 sequence (Q07869 whole entry)

[14] = target: T4, Peroxisome proliferator-activated receptor alpha (Mus musculus) (UniProt P23204); test: Partial agonist activity at mouse PPARalpha expressed in CHO cells co-transfected with Gal4-responsive luciferase reporter plasmid after 24 hrs by transactivation assay relative to fenofibric acid; format: functional, cell-based
T4 sequence (whole entry): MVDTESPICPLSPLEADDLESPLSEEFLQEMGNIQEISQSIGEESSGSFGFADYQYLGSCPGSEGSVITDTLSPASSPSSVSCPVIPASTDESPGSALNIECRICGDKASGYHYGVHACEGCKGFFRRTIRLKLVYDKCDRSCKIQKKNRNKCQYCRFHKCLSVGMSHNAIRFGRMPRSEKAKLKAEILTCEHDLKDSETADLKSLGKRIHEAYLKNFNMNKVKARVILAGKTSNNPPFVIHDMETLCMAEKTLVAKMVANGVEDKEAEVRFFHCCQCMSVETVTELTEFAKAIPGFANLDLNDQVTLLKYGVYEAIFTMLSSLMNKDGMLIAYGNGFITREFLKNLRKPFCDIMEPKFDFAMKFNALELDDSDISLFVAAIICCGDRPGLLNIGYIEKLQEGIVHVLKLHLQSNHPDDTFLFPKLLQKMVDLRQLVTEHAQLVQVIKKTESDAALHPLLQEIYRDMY

[15] = Selectivity ratio of EC50 for mouse PPARalpha to EC50 for human PPARgamma
Homo sapiens = organism: Homo sapiens; test: Selectivity ratio of EC50 for human PPARalpha to EC50 for human PPARgamma

EC50 [1] [µM]	EC50 [2] [µM]	Activity [13] [%]	SMILES	other results
3.3			Cc1ccc(C(=O)c2nc3ccccc3n2-c2cccc(OC(C)(C)C(=O)O)c2)cc1	
4.6	> 10		Cc1ccc(C(=O)c2nc3ccccc3n2C/C=C/c2cccc(OCC(=O)O)c2)cc1	
0.13	2.4		Cc1ccc(C(=O)c2nc3ccccc3n2/C=C/c2cccc(OC(C)(C)C(=O)O)c2)cc1 [listing 1 of 2 here]	
			Cc1ccc(C(=O)c2nc3ccccc3n2/C=C/c2cccc(OC(C)(C)C(=O)[O-])c2)cc1.[Na+]	inhibition in vivo at 30 mg/kg/day (Mus musculus [3]): 38%; Vd [4]: 0.747 L/kg; Activity (Mus musculus [5]): 11%; Activity (Mus musculus [6]): Non-toxic; inhibition in vivo at 30 mg/kg/day (Mus musculus [7]): 60%; inhibition in vivo at 30 mg/kg/day (Mus musculus [8]): 86%; half-life [9]: 1.45 h; clearance [10]: 3.48 mL/min/kg; bioavailability [11]: 110%; Cmax [12]: 4340 ng/mL
		100	CC(C)(Oc1ccc(C(=O)c2ccc(Cl)cc2)cc1)C(=O)O	
3	3.6	60	Cc1ccc(C(=O)c2nc3c(n2C/C=C/c2cccc(OC(C)(C)C(=O)O)c2)CCCC3)cc1	
1.7	3.6	42	Cc1ccc(C(=O)c2nc3ccccc3n2C/C=C/c2cccc(OC(C)(C)C(=O)O)c2)cc1	
			CCc1ccc(CCOc2ccc(CC3SC(=O)NC3=O)cc2)nc1 (centres undefined) [PIOGLITAZONE]	inhibition in vivo at 30 mg/kg/day (Mus musculus [3]): 10%; Activity (Mus musculus [5]): 17%; inhibition in vivo at 30 mg/kg/day (Mus musculus [7]): 46%; inhibition in vivo at 30 mg/kg/day (Mus musculus [8]): 69%
12	0.62	56	Cc1ccc(C(=O)c2nccn2C/C=C/c2cccc(OC(C)(C)C(=O)O)c2)cc1	
> 10	> 10		Cc1ccc(C(=O)c2nccn2C/C=C/c2cccc(OCC(=O)O)c2)cc1	
4.8	3.6	60	Cc1ccc(C(=O)c2nc(C)c(C)n2C/C=C/c2cccc(OC(C)(C)C(=O)O)c2)cc1	
		44	Cc1ccc(C(=O)c2nc3ccccc3n2/C=C/c2cccc(OC(C)(C)C(=O)O)c2)cc1 [listing 2 of 2 here]	Activity [14]: 77%; Ratio EC50 [15]: 13; Ratio EC50 (Homo sapiens): 18
6			Cc1ccc(C(=O)c2nc3ccccc3n2Cc2cccc(OC(C)(C)C(=O)O)c2)cc1	
